Measurements published in PMC4634243 (Influenza and Other Respiratory Viruses, 2012).

Columns and labels:
[1] = system: H5N1 influenza virus strain 178; format: cell-based, H5N1 influenza virus strain 178 in MDCK cells; details: 12–72 h
[2] = system: influenza virus type A, A/Chicken/GuangDong/178/2004 (H5N1, 178)
purified N1‐type NA = purified N1‐type NA (Influenza A virus, UniProt P03468); format: biochemical
[3] = system: RNP combinations of PB2, PB1, PA, and NP from influenza virus strain 178; format: cell-based, influenza virus strain 178 (H5N1), 293T cells
[4] = system: H5N1‐HIV pseudoviruses (HA of A/Qinghai/59/2005(H5N1), NA of A/Thailand/Kan353/2004); format: cell-based, H5N1 pseudovirus in MDCK cells
[5] = system: H5N1 influenza virus strain 178; assay: organism not typed; format: cell-based, H5N1 influenza virus strain 178 in MDCK cells
[6] = system: nuclear‐to‐cytoplasmic export of the RNP complex (NP); format: cell-based, 178 H5N1 HPAIV in MDCK cells

Sequence of purified N1‐type NA (P03468 whole entry): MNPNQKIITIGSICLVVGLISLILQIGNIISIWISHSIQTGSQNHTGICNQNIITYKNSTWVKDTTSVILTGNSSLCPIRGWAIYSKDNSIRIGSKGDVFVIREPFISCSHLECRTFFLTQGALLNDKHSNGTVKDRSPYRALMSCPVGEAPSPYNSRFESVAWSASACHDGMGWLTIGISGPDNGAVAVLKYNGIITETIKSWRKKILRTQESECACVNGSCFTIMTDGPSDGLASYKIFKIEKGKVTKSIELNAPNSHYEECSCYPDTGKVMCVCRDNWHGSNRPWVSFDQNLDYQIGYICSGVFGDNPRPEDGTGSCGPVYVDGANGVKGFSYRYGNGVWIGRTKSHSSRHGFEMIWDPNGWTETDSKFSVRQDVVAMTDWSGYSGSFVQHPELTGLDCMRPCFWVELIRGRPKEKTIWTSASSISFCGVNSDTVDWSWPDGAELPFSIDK

| Structure (SMILES) | HA titer, cultured with DMEM‐containing compounds (protocol 4, 5, 7) [1] | SI (CC50/EC50) [2] | inhibitory activity on the N1‐type neuraminidase (purified N1‐type NA) | luciferase activities (RNP activity) compared with no treatment [3] | prevention of binding and internalizing of H5N1 pseudovirions into MDCK cells [4] | inhibitory activity when added at time intervals 5 min–1 h, 15 min–1 h, 30 min–1 h, 1–2 h, 2–4 h, or 4–8 h [5] | inhibitory effect against virus, time of addition [5] | inhibition at 52 µM ([5]; read-out: virus inhibited (HA titer)) [%] | location of NP protein at 48 h p.i. (multi‐round replication) [6] | migration of the RNP complex from the nucleus to cytoplasm, early and middle stages of the replication cycle (0–6 h) [6] | time for which antiviral activity (block in vRNP nuclear export) was retained [6] | CC50 (MDCK cells) | distribution of NP protein at 12, 24, and 48 h p.i. [6] |
| --- | --- | --- | --- | --- | --- | --- | --- | --- | --- | --- | --- | --- | --- |
| O[C@H]1[C@H]2c3cc4c(cc3CN3CCC(=C[C@@H]1O)[C@H]23)OCO4 [AA1, lycorine] | no HA titer was detected | >45 | did not exhibit significant inhibitory activity | slightly higher luciferase activities | neither AA1 nor AA3 could prevent | not significant | observed after a single round of replication (12 h p.i.) | ~50 | NP protein was exported to cytoplasm | affected migration of the RNP complex from the nucleus to cytoplasm | up to 24 h | 20·9 ± 0·07 μM |  |
| O=c1cc(N2CCOCC2)oc2c(-c3ccccc3)cccc12 [LY294002, reference compound] |  |  |  |  |  |  |  |  |  |  |  |  | the protein was still in the nucleus |
